{"source": "patent US20210353648A1", "about": "“GRAPIPRANT UNIT DOSAGE FORMS” (Arrys Therapeutics, Inc., priority 2018, published 2021)", "key": {"[1]": {"test_system": "urinary N-terminal telopeptide of type I collagen", "assay": "Multiple ascending dose study: bone marker, percent change from baseline", "type": "in vivo, human", "excerpt": "Each bone marker (serum bone-specific alkaline phosphatase and osteocalcin, urinary N-terminal telopeptide of type I collagen) is expressed as percentage change from baseline and analyzed. To assess influence of potential outliers on the bone marker data analyses, the following analysis can be conducted first. Potential outliers are identified as outside an interval consistent with a normal distribution defined as (median±3.5 standard deviations [SD]) for each dosing regimen and day combination. The SD is a pooled estimate across all dosing regimen and day combinations, each estimated by the scaled inter-quartile range 0.75 (Q75-Q25). Explicitly, for each dosing regimen and day combination, its SD denoted by SDi is estimated by its scaled inter-quartile range 0.75 (Q75-Q25). The overall SD is estimated as\nThen, the (percent change from baseline) values are analyzed with a mixed effect model, with treatment (dosing regimen), day, and treatment-by-day interaction effects considered fixed and subject considered random. Baseline value is not included as a covariate. The model is fit separately to each group of cohorts (Cohorts 1-3 and 5). For Cohorts 1-3, days of interest are day 7 and day 14. For Cohort 5, days of interest are day 10 and day 17. For each group of cohorts, compound symmetry is assumed, and Restricted Maximum Likelihood Estimates are used. The least squares means (LSMeans) and 95% confidence intervals (CI) are obtained for each treatment and day combination. Within each treatment, LSMean percent changes from baseline at each post-dosing day (i.e., day 7 and day 14 for Cohorts 1-3, and day 10 and day 17 for Cohort 5) are obtained, along with their 95% CIs. In addition, for each post-dosing day, differences of the LSMean percent changes from baseline between active dosed regimen and placebo are obtained. The p-values comparing these differences from placebo are obtained using t-tests. No adjustments are made for multiple comparisons. […] If outliers are identified, additional mixed model analyses using the same mixed effect modeling as detailed above are to be conducted excluding the outliers. […] Individual percent-change-from-baseline profile versus time plots are plotted by treatment regimen."}, "[2]": {"assay": "Phase 1 multiple ascending dose study of grapiprant tablets: safety and tolerability", "quoted_text": "Study Design: This was a randomized, investigator-blind, subject-blind, sponsor-open, placebo controlled, sequential parallel-group, multiple ascending dose study of grapiprant tablets.\nSafety Evaluations: Safety evaluations included clinical monitoring, adverse events (AEs), clinical laboratory tests including renal function tests, bone markers (serum bone-specific alkaline phosphatase and osteocalcin and urinary N-terminal telopeptide of type I collagen), vital signs (heart rate and blood pressure), and 12-lead ECGs.\nSafety Analyses: Safety data are presented in tabular and/or graphical format and summarized descriptively.\nBone markers were analyzed as percentage change from baseline and the influence of potential outliers was assessed."}, "[3]": {"assay": "Phase 1 single ascending dose study of grapiprant OPC: safety and tolerability", "type": "in vivo", "method": "Eligible subjects were to be enrolled into 8 sequential cohorts, corresponding to the planned dose levels of 1 mg, 3 mg, 10 mg, 30 mg, 100 mg, 300 mg, 600 mg, and 1000 mg. […] After determining a maximum tolerated dose (MTD), or after completing the highest dose cohort if a MTD was not determined, Cohort 11 would be enrolled to increase the number of subjects evaluated at the MTD (or the highest dose).\nIn each dosing period, subjects were confined to the Clinical Research Unit (CRU) for approximately 60 hours (from approximately 36 hours predose through 24 hours postdose), and were instructed to return to the study site at 48 hours postdose for collection of blood samples for safety and pharmacokinetic evaluations. Subjects had triplicate ECG measurements made at select time-points on Day 0 (to provide a time-matched baseline) and through 24 hours postdose. Continuous cardiac monitoring by telemetry was performed for 12 hours postdose (or up to 24 hours, if warranted, based on the pharmacokinetic data). Creatine phosphokinase (CPK; total CPK and CPK-MB isoenzyme) and troponin I levels were monitored predose and at 12 and 24 hours postdose. In each dosing period, blood samples were collected predose and at 0.5, 1, 1.5, 2, 2.5, 3, 4, 6, 8, 12, 16, 24, and 48 hours postdose for pharmacokinetic evaluation. Fecal occult blood was monitored predose and through 48 hours postdose. Urine was collected through 24 hours postdose for exploratory biotransformation analyses. Since grapiprant may be a substrate of efflux transporters, genotyping for P-gp, an efflux transporter, was also planned for this study.\nSafety: All subjects were evaluated for safety. Subjects were queried regarding adverse events (AEs) at 24 hours prior to dosing, 0 hours predose (baseline), and 1, 2, 4, 8, and 12 hours postdose. A limited physical examination, clinical laboratory tests, and fecal occult blood test were performed 24 hours prior to dosing. Vital signs measurements and 12-lead ECGs were performed in triplicate (approximately 2 minutes apart) at specified intervals in the 24 hours before dosing, 0 hours (predose), and at 0.5, 1, 1.5, 2, 3, 4, 8, and 12 hours postdose. Continuous cardiac telemetry monitoring was started at 1 hour postdose and continued for 12 hours postdose Fecal occult blood was monitored for 48 hours postdose."}, "[4]": {"assay": "Phase 1 crossover food effect study of 375 mg grapiprant tablets: safety", "type": "in vivo, human", "settings": "for subjects with treatment-emergent adverse events / treatment-emergent adverse events: 12 subjects", "method": "This study was a randomized, open-label, single dose, 2-period crossover design. Each subject participated in 2 study periods. In each study period, subjects received a dose of 375 mg administered as 3×125 mg tablets of grapiprant under fasted or fed conditions in a crossover manner according to a randomized dosing sequence. The fed condition consisted of a standardized high-fat meal. Following an initial screening period of no longer than 28 days, 12 eligible subjects were to be randomized to the 2 treatment sequences and 2 treatment period sessions as shown in Table 6-1.\nAll subjects were evaluated for safety, which was assessed by adverse events either spontaneously reported or elicited by non-leading questions from study staff, clinical observations, safety laboratory tests, vital signs, 12-lead ECGs, concomitant medication assessment, physical examination, and fecal occult blood tests."}}}
{"smiles": "CCc1nc2c(C)nc(C)cc2n1-c1ccc(CCNC(=O)NS(=O)(=O)c2ccc(C)cc2)cc1", "note": "[Grapiprant, N-((4-(2-ethyl-4,6-dimethyl-1H-imidazo[4,5-c]pyridin-1-yl)phenethyl)carbamoyl)-4-methylbenzenesulfonamide]", "values": [{"measurement": "LS Mean change in N-telopeptide of type I collagen", "setting": "[1]; 50 mg, 14-day oral administration, healthy adults, post-dosing day 7", "value": "about 14.77%"}, {"measurement": "LS Mean change in N-telopeptide of type I collagen", "setting": "[1]; 50 mg, 14-day oral administration, healthy adults, post-dosing day 14", "value": "about −23.50%"}, {"measurement": "change from baseline in urine N-telopeptide (least squares mean)", "setting": "[1]; 150 mg BID, Day 14, healthy subjects, placebo 34.74%, p=0.050", "value": "−3.97", "unit": "%"}, {"measurement": "LS Mean change in N-telopeptide of type I collagen", "setting": "[1]; 150 mg, 14-day oral administration, healthy adults, post-dosing day 7", "value": "about −9.78%"}, {"measurement": "LS Mean change in N-telopeptide of type I collagen", "setting": "[1]; 150 mg, 14-day oral administration, healthy adults, post-dosing day 14", "value": "about −38.72%"}, {"measurement": "LS Mean change in N-telopeptide of type I collagen", "setting": "[1]; 250 mg, 17-day oral administration, elderly with minor renal impairment, post-dosing day 10", "value": "about −9.62%"}, {"measurement": "LS Mean change in N-telopeptide of type I collagen", "setting": "[1]; 250 mg, 17-day oral administration, elderly with minor renal impairment, post-dosing day 17", "value": "about −16.76%"}, {"measurement": "LS Mean change in N-telopeptide of type I collagen", "setting": "[1]; 300 mg, 14-day oral administration, healthy adults, post-dosing day 7", "value": "about 12.69%"}, {"measurement": "LS Mean change in N-telopeptide of type I collagen", "setting": "[1]; 300 mg, 14-day oral administration, healthy adults, post-dosing day 14", "value": "about −21.33%"}, {"measurement": "bone marker difference between treatment groups", "setting": "[1]; elderly subjects, 250 mg BID versus placebo", "value": "no statistically significant differences"}, {"measurement": "AEs reported", "setting": "[2]; 50 mg BID, healthy subjects", "value": 7, "unit": "AEs"}, {"measurement": "subjects reporting AEs", "setting": "[2]; 50 mg BID, healthy subjects (9 treated)", "value": 4, "unit": "subjects"}, {"measurement": "AEs reported", "setting": "[2]; 150 mg BID, healthy subjects", "value": 23, "unit": "AEs"}, {"measurement": "subjects reporting AEs", "setting": "[2]; 150 mg BID, healthy subjects (9 treated)", "value": 7, "unit": "subjects"}, {"measurement": "AEs reported", "setting": "[2]; 250 mg BID, elderly subjects", "value": 44, "unit": "AEs"}, {"measurement": "subjects reporting AEs", "setting": "[2]; 250 mg BID, elderly subjects (15 treated)", "value": 14, "unit": "subjects"}, {"measurement": "tolerability", "setting": "[2]; 250 mg BID, elderly subjects with mild renal impairment", "value": "well tolerated"}, {"measurement": "AEs reported", "setting": "[2]; 300 mg BID, healthy subjects", "value": 13, "unit": "AEs"}, {"measurement": "subjects reporting AEs", "setting": "[2]; 300 mg BID, healthy subjects (9 treated)", "value": 6, "unit": "subjects"}, {"measurement": "deaths", "setting": "[2]; all cohorts", "value": "No deaths"}, {"measurement": "severity of most treatment-emergent AEs", "setting": "[2]; all cohorts", "value": "mild"}, {"measurement": "vital signs and ECGs", "setting": "[2]; all cohorts", "value": "no clinically significant mean changes from baseline"}, {"measurement": "systolic blood pressure", "setting": "[2]; elderly subjects with mild renal impairment, 250 mg BID, versus placebo group", "value": "small increase from baseline"}, {"measurement": "laboratory safety tests, including renal function tests", "setting": "[2]; grapiprant versus placebo", "value": "no clinically significant findings"}, {"measurement": "systolic blood pressure", "setting": "[2]; healthy subjects, doses up to 300 mg BID, triplicate BP monitoring", "value": "no difference between changes from baseline compared with placebo"}, {"measurement": "tolerability", "setting": "[2]; multiple-dose administration for 14 days, doses up to 300 mg BID, healthy adult subjects", "value": "well tolerated"}, {"measurement": "withdrawal due to AE", "setting": "[2]; one elderly subject, 250 mg BID", "value": "non-drug related AE of ventricular tachycardia"}, {"measurement": "serious AEs considered related to the study medication", "setting": "[2]; one healthy subject, 150 mg BID", "value": "decreased hemoglobin, decreased hematocrit, and gastrointestinal hemorrhage"}, {"measurement": "subjects reporting abdominal pain", "setting": "[3]; 30 mg", "value": 1, "unit": "subject"}, {"measurement": "SAEs", "setting": "[3]; 1 subject at 600 mg (not related), 1 each at 1500 mg and 2000 mg", "value": "Three subjects experienced SAEs"}, {"measurement": "subjects reporting abdominal pain", "setting": "[3]; 1500 mg", "value": 2, "unit": "subjects"}, {"measurement": "incidence of AEs", "setting": "[3]; 1500 mg treatment group", "value": "4 of 6 subjects"}, {"measurement": "subjects reporting abdominal pain", "setting": "[3]; 2000 mg", "value": 4, "unit": "subjects"}, {"measurement": "incidence of AEs", "setting": "[3]; 2000 mg treatment group", "value": "5 of 6 subjects"}, {"measurement": "serum creatinine and BUN (COSTART term: acute renal failure)", "setting": "[3]; 2 subjects, 1 each at 1500 mg and 2000 mg", "value": "mild, treatment-related elevations in serum creatinine and BUN"}, {"measurement": "subjects experiencing AEs", "setting": "[3]; 26 of the 61 subjects treated, single doses 1 mg to 2000 mg", "value": 43, "unit": "%"}, {"measurement": "deaths or discontinuations due to AEs", "setting": "[3]; all dose levels", "value": "No deaths or discontinuations due to AEs"}, {"measurement": "fecal occult blood", "setting": "[3]; all dose levels", "value": "No positive results for fecal occult blood tests"}, {"measurement": "vital signs measurements, cardiac telemetry, ECG parameters", "setting": "[3]; all dose levels", "value": "No clinically important, study drug-related changes"}, {"measurement": "subjects with treatment-related abdominal pain", "setting": "[3]; among the 12 subjects who received 1500 or 2000 mg", "value": 6, "unit": "subjects"}, {"measurement": "tolerability", "setting": "[3]; single doses ranging from 1 mg to 1000 mg", "value": "generally well tolerated"}, {"measurement": "subjects with treatment-emergent adverse events", "setting": "[4]; 375 mg tablet-fasted treatment", "value": 5, "unit": "subjects"}, {"measurement": "treatment-emergent adverse events", "setting": "[4]; 375 mg tablet-fasted treatment", "value": 7, "unit": "events"}, {"measurement": "subjects with treatment-emergent adverse events", "setting": "[4]; 375 mg tablet-fed treatment", "value": 4, "unit": "subjects"}, {"measurement": "treatment-emergent adverse events", "setting": "[4]; 375 mg tablet-fed treatment", "value": 5, "unit": "events"}, {"measurement": "intensity of adverse events", "setting": "[4]; 375 mg, after both treatments", "value": "mild in intensity"}, {"measurement": "QTc", "setting": "[4]; 375 mg, fasted and fed", "value": "no subjects had maximum QTc increases from baseline of ≥30 msec"}, {"measurement": "clinical laboratory tests or vital sign measurements", "setting": "[4]; 375 mg, fasted and fed", "value": "No subjects had clinically significant changes from baseline"}, {"measurement": "deaths, serious adverse events, withdrawals", "setting": "[4]; 375 mg, fasted and fed", "value": "no deaths, serious adverse events, or withdrawals due to adverse events"}, {"measurement": "tolerability", "setting": "[4]; 375-mg dose of tablets, fasted and fed conditions, healthy adults", "value": "well-tolerated"}]}
